# Measurements from US20140017721A1 (The Research Foundation of State University of New York, priority 2012, published 2014).
# System: prostate cancer cells (parental PPT2, primary tumor-derived)
# Assay: Cytotoxic drug treatment of parental primary prostate cancer cells under stemness-promoting culture
# Type: cell-based, human
# Details: 0.1-3 μM concentrations; FIG. 1C
# Excerpt: Initially, the isolated fast adherent cells represented a mixture of a majority of tumor-associated fibrocytes with a minor population of large cancer cells (FIG. 1A).
smiles,measurement,value
CC(=O)O[C@H]1C(=O)[C@@]2(C)[C@H]([C@H](OC(=O)c3ccccc3)[C@]3(O)C[C@H](OC(=O)[C@H](O)[C@@H](NC(=O)c4ccccc4)c4ccccc4)C(C)=C1C3(C)C)[C@]1(OC(C)=O)CO[C@@H]1C[C@@H]2O [Taxol],enrichment of multinucleated gigantic cells (highly drug resistant type of CSCs),significant enrichment and visualization of the multinucleated gigantic cells
CC(=O)O[C@@]12CO[C@@H]1C[C@H](O)[C@@]1(C)C(=O)[C@H](OC(=O)C3CC3)C3=C(C)[C@@H](OC(=O)[C@H](O)[C@H](C=C(C)C)NC(=O)OC(C)(C)C)C[C@@](O)([C@@H](OC(=O)c4ccccc4)[C@H]21)C3(C)C [SBT-1214],enrichment of multinucleated gigantic cells (highly drug resistant type of CSCs),significant enrichment and visualization of the multinucleated gigantic cells
